Measured values published in PubChem BioAssay (NCI).
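Values below derive from 48-hour exposures of cells grown in 96-well plates, with endpoints linearly interpolated between the two concentrations bracketing the appropriate inhibition level. Abbreviation: GI50, concentration required for 50% inhibition of growth. TGI: total growth inhibition.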

Assays:
Assay in all cases: growth of human tumour cells (NCI), 48 h
NCI-H226 lung = tested on: NCI-H226 lung
NCI-H23 lung = tested on: NCI-H23 lung
NCI-H460 lung = tested on: NCI-H460 lung
NCI-H522 lung = tested on: NCI-H522 lung
NCI/ADR-RES ovarian = tested on: NCI/ADR-RES ovarian
OVCAR-3 ovarian = tested on: OVCAR-3 ovarian
OVCAR-4 ovarian = tested on: OVCAR-4 ovarian
OVCAR-5 ovarian = tested on: OVCAR-5 ovarian
OVCAR-8 ovarian = tested on: OVCAR-8 ovarian
PC-3 prostate = tested on: PC-3 prostate
RPMI-8226 leukemia = tested on: RPMI-8226 leukemia
RXF 393 renal = tested on: RXF 393 renal
SF-268 CNS = tested on: SF-268 CNS
SF-295 CNS = tested on: SF-295 CNS
SF-539 CNS = tested on: SF-539 CNS
SK-MEL-2 melanoma = tested on: SK-MEL-2 melanoma
SK-MEL-28 melanoma = tested on: SK-MEL-28 melanoma
SK-MEL-5 melanoma = tested on: SK-MEL-5 melanoma
SK-OV-3 ovarian = tested on: SK-OV-3 ovarian
SN12C renal = tested on: SN12C renal
SNB-19 CNS = tested on: SNB-19 CNS
SNB-75 CNS = tested on: SNB-75 CNS
SR leukemia = tested on: SR leukemia
SW-620 colon = tested on: SW-620 colon
T-47D breast = tested on: T-47D breast
TK-10 renal = tested on: TK-10 renal
U251 CNS = tested on: U251 CNS
UACC-257 melanoma = tested on: UACC-257 melanoma
UACC-62 melanoma = tested on: UACC-62 melanoma
UO-31 renal = tested on: UO-31 renal

COc1ccc2c(c1OC)-c1c(c3ccc([N+](=O)[O-])cc3c(=O)n1CCCN)C2=O
GI50 (NCI-H226 lung): 3.95 µM
TGI (NCI-H226 lung): 8.79 µM
GI50 (NCI-H23 lung): 4.7 µM
TGI (NCI-H23 lung): 9.19 µM
GI50 (NCI-H460 lung): 3.47 µM
TGI (NCI-H460 lung): 12.3 µM
GI50 (NCI-H522 lung): 3.54 µM
TGI (NCI-H522 lung): 9.33 µM
GI50 (NCI/ADR-RES ovarian): 4.83 µM
TGI (NCI/ADR-RES ovarian): 9.76 µM
GI50 (OVCAR-3 ovarian): 16.2 µM
TGI (OVCAR-3 ovarian): 32.6 µM
GI50 (OVCAR-4 ovarian): 5.49 µM
TGI (OVCAR-4 ovarian): 12.1 µM
GI50 (OVCAR-5 ovarian): 5.31 µM
TGI (OVCAR-5 ovarian): 9.74 µM
GI50 (OVCAR-8 ovarian): 3.53 µM
TGI (OVCAR-8 ovarian): 12.9 µM
GI50 (PC-3 prostate): 4.59 µM
TGI (PC-3 prostate): 10.5 µM
GI50 (RPMI-8226 leukemia): 1.01 µM
TGI (RPMI-8226 leukemia): 3.32 µM
GI50 (RXF 393 renal): 4.32 µM
TGI (RXF 393 renal): 10.1 µM
GI50 (SF-268 CNS): 3.54 µM
TGI (SF-268 CNS): 13.6 µM
GI50 (SF-295 CNS): 5.72 µM
TGI (SF-295 CNS): 11.5 µM
GI50 (SF-539 CNS): 4.42 µM
TGI (SF-539 CNS): 9.02 µM
GI50 (SK-MEL-2 melanoma): 4.56 µM
TGI (SK-MEL-2 melanoma): 9.77 µM
GI50 (SK-MEL-28 melanoma): 5.34 µM
TGI (SK-MEL-28 melanoma): 10.4 µM
GI50 (SK-MEL-5 melanoma): 4.33 µM
TGI (SK-MEL-5 melanoma): 8.82 µM
GI50 (SK-OV-3 ovarian): 7.9 µM
TGI (SK-OV-3 ovarian): 17.6 µM
GI50 (SN12C renal): 3.79 µM
TGI (SN12C renal): 7.86 µM
TGI (SNB-19 CNS): > 20.2 µM
TGI (SNB-75 CNS): 1.56 µM
GI50 (SR leukemia): 0.1 µM
TGI (SR leukemia): 0.272 µM
GI50 (SW-620 colon): 0.573 µM
TGI (SW-620 colon): 4.81 µM
TGI (T-47D breast): > 20.1 µM
GI50 (TK-10 renal): 5.72 µM
TGI (TK-10 renal): 12 µM
GI50 (U251 CNS): 1.83 µM
TGI (U251 CNS): 5.76 µM
GI50 (UACC-257 melanoma): 4.97 µM
TGI (UACC-257 melanoma): 9.74 µM
GI50 (UACC-62 melanoma): 3.52 µM
TGI (UACC-62 melanoma): 7.32 µM
GI50 (UO-31 renal): 3.81 µM
TGI (UO-31 renal): 7.89 µM
